The values that follow come from PMC10935062 (Acta Pharmaceutica Sinica. B, 2023).

The series is described as follows: Water solubility. It is filed as physicochemical.

Take `NC(=O)c1ccc(C(=O)NOCc2ccc(Sc3ccc(N)cc3)c(C(F)(F)F)c2)cc1` [compound 11p]: the water solubility entry is recorded as “superior water solubility”.
